Assay results published in US11925656B2, “Biological total joint replacement” (priority 2014, dated 2024).

Columns and labels:
lubricin = test: Lubricin in synovium by ELISA, rabbit arthritis model; format: in vivo
From the text: (§1) The study was approved by the Institutional Animal Care and Use Committee (IACUC) of Thomas D. Morris, Inc. 28 New Zeeland White rabbits were selected for the study. Six such were randomly assigned to one of four groups; prophylactic cyanidin-3-glycoside (C3G)(referred to figures as Cl 1-42), prophylactic protocatechuic acid (PCA)(referred to in figures as PCA 1-42), therapeutic C3G (referred to in figures as Cl 42-70), and therapeutic PCA (referred to in figures as PCA 42-70). There were four controls, two each to the prophylactic and therapeutic groups.
(§2) The prophylactic groups were given PROC3G™ by Chromadex™ at a dose of 30 mg/kg of body weight of either C3G or PCA by mouth, 7 times per week for 42 days. The therapeutic groups' treatment was initiated on day 42 with a daily dose of PROC3G™ by Chromadex™ 7 times per week for 4 weeks. The dose of 30 mg of cyanidin-3-glucoside per kg of body weight calculates to be 0.177 millimoles per kg body weight. The dose of PCA was the same in terms of millimoles per kg body weight.
(§3) The experimental rabbits underwent surgery with an intent to create a severe degenerative arthritis by cutting the medial collateral ligament, the anterior cruciate ligament and removing the medial meniscus. A partial thickness laceration was made longitudinally on the lateral femoral condyle for future assessment of potential for repair. The surgery was performed by two licensed veterinarians. One surgeon was very experienced. The other surgeon was a recent graduate.
(§4) At necropsy, the synovial fluid was harvested percutaneously and upon arthrotomy. The synovium was harvested from posterior compartment. The patella and adjacent synovium was procured as a separate specimen as was the medial and lateral condyle.
(§5) The synovial fluid and half of the synovium was frozen and sent to BioBoston Laboratory for chemical analysis. The other half of the synovium and bone was sent to McClinchery Histology in Stockbridge, Mich. for histological preparation and staining. […]
(§6) Synovial Tissue (Synovium)—Detected by ELISA

TNF-alpha = TNF-alpha in synovial fluid by ELISA, rabbit arthritis model; format: in vivo; details: therapeutic groups, oral 4 weeks, vs control; not statistically significant
From the text: as §1, §2
(§7) The experimental rabbits underwent surgery with an intent to create a severe degenerative arthritis by cutting the medial collateral ligament, the anterior cruciate ligament and removing the medial meniscus. […]
(§8) Synovial Fluid—Detected by ELISA

MMP-13 = MMP-13 in synovium by ELISA, rabbit surgically induced knee arthritis; format: in vivo; details: vs untreated control, not statistically significant
From the text: as §1, §2, §3, §4
(§9) The synovial fluid and half of the synovium was frozen and sent to BioBoston Laboratory for chemical analysis. The other half of the synovium and bone was sent to McClinchery Histology in Stockbridge, Mich. for histological preparation and staining. Patellar slides were sent to BioBoston Contract Laboratories for histochemical staining and ICRS grading. Sample slides were examined for Lubricin at Myron Spector laboratory.
as §6

MMP-1 = MMP-1 in synovium by ELISA, rabbit arthritis model; format: in vivo; details: therapeutic group, oral days 42-70, vs control
From the text: as §1, §2
The experimental rabbits underwent surgery with an intent to create a severe degenerative arthritis by cutting the medial collateral ligament, the anterior cruciate ligament and removing the medial meniscus. A partial thickness laceration was made longitudinally on the lateral femoral condyle for future assessment of potential for repair. […]

IGF-1 = IGF-1 in plasma, rabbit arthritis model; format: in vivo; details: control group 25 PG/ML
From the text: as §1, §2, §3
Blood testing was performed prior to necropsy on C3G, PCA, glucose, MMP-3 and IGF-1 to assess any systemic effects.

IL-1 beta = IL-1 beta in synovium by ELISA, rabbit arthritis model; format: in vivo; details: therapeutic groups, oral days 42-70, vs control
From the text: as §1
(§10) The prophylactic groups were given PROC3G™ by Chromadex™ at a dose of 30 mg/kg of body weight of either C3G or PCA by mouth, 7 times per week for 42 days. The therapeutic groups' treatment was initiated on day 42 with a daily dose of PROC3G™ by Chromadex™ 7 times per week for 4 weeks. The dose of 30 mg of cyanidin-3-glucoside per kg of body weight calculates to be 0.177 millimoles per kg body weight. The dose of PCA was the same in terms of millimoles per kg body weight. […]
Interleukin-1 beta (IL-1p) also known as catabolic, is a cytokine protein. […] Increased production of IL-1B causes a number of different auto-inflammatory syndromes. • Synovial Fluid—Detected by ELISA • Levels of IL-1 beta were decreased in all groups. See FIG. 2A. • Synovial Tissue (Synovium)—Detected by ELISA

MMP3 = MMP3 in synovial fluid by ELISA, rabbit arthritis model; format: in vivo; details: therapeutic groups, oral days 42-70, vs control
From the text: as §1, §10
MMP3 is known as matrix metallopeptidase 3, or stromelysin 1 or progelatinase. […] See FIG. 2C. • Synovial Tissue (Synovium)—Detected by ELISA • MMP-3 levels were reduced in all four groups. See FIG. 9B. • Synovial Tissue (Synovium)—Gene Expression Level Detected by Real-Time PCR • MMP-3 gene expression was decreased in all groups. […]

C-reactive protein (CRP) = C-reactive protein (CRP) in plasma after knee surgery; format: in vivo, rabbit
Description: C-reactive protein (CRP) is a protein found in the blood plasma, the levels of which rise in response to inflammation (i.e., C-reactive protein is an acute-phase protein). Its physiological role is to bind to phosphocholine expressed on the surface of dead or dying cells (and some types of bacteria) in order to activate the complement system via the C1Q complex. CRP rises within two hours of the onset of inflammation, up to a 50,000-fold, and peaks at 48 hours. […] CRP is thus a screen for inflammation.
Knee surgery was performed to create a severe irreparable degenerative knee joint, which in turn elevated the CRP in the plasma to average of […]. A historical normal amount of CRP is 3.15 micrograms/mL. See Sun H, et al., Am J Pathol. October 2005; 167(4): 1139-1148. Rabbit CRP levels are close to the mean values of healthy middle-aged humans (2.82 mg/L) reported in the literature. See Ockene I S, et al., Clin Chem. 2001; 47:444-450.
The controls in the study were animals that had surgery and received no treatment. The prophylaxis test groups had the surgery and received 6 weeks of oral C-3-G or PCA 7 times per week as described in example 1. The therapeutic treatment group had surgery, received no treatment for 41 days and then at day 42 received oral C-3-G or PCA 7 times per week as described in example 1.

ADAMTS-5 gene expression = ADAMTS-5 gene expression in synovium by real-time PCR, rabbit arthritis model; format: in vivo; details: therapeutic groups, oral days 42-70, vs control
From the text: as §1, §2, §7
Synovial Tissue (Synovium)—Gene Expression Level Detected by Real-Time PCR

MMP-3 = MMP-3 expression in cartilage, histochemical staining and scoring, rabbit arthritis model; format: in vivo
From the text: as §1, §2, §3, §4, §9
MMP3 is known as matrix metallopeptidase 3, or stromelysin 1 or progelatinase. Proteins of the matrix metalloproteinase (MMP) family are involved in the breakdown of 20 extracellular matrix in normal physiological processes, such as embryonic development, reproduction, and tissue remodeling, as well as in disease processes, such as arthritis and metastasis. […] See FIG. 2C. • Synovial Tissue (Synovium)—Detected by ELISA • MMP-3 levels were reduced in all four groups. See FIG. 9B. • Synovial Tissue (Synovium)—Gene Expression Level Detected by Real-Time PCR • MMP-3 gene expression was decreased in all groups. See FIG. 13A. • Histochemical Scoring Analysis

TIMP-1 = TIMP-1 in synovial fluid by ELISA, rabbit arthritis model; format: in vivo; details: statistical significance not evident
From the text: as §1, §2, §7, §8

TGF-beta = TGF-beta in synovium by ELISA, rabbit arthritis model; format: in vivo; details: therapeutic group, oral days 42-70, vs control
From the text: as §1
The prophylactic groups were given PROC3G™ by Chromadex™ at a dose of 30 mg/kg of body weight of either C3G or PCA by mouth, 7 times per week for 42 days. The therapeutic groups' treatment was initiated on day 42 with a daily dose of PROC3G™ by Chromadex™ 7 times per week for 4 weeks. […]
TGF-β induces apoptosis in numerous cell types. […] It is a type of cytokine which plays a role in immunity, cancer, bronchial asthma, heart disease, diabetes, hereditary hemorrhagic telangiectasia, Marfan syndrome, vascular Ehlers-Danlos syndrome Loeys-Dietz syndrome, Parkinson's disease, and AIDS. • Synovial Fluid—Detected by ELISA • TGF-beta was decreased in all groups. See FIG. 2B. • Synovial Tissue (Synovium)—Detected by ELISA • TGF-beta was increased in the C3G therapeutic group.

lymphocytes = test: Number of lymphocytes in synovial fluid, rabbit arthritis model; format: in vivo; details: therapeutic groups, oral days 42-70, vs control
From the text: as §1, §2, §3, §4
In addition to testing for the increase or decrease of various factors and cytokines, tests were run to count the number of white blood cells, including polymorphonuclear leukocytes (PMN), macrophages (Mac) and lymphocytes (Lym). […]

ADAMTS-5 = ADAMTS-5 in synovial fluid by ELISA, rabbit arthritis model; format: in vivo
From the text: as §1, §2, §3, §4, §5, §8

[1] = prophylactic groups, oral days 1-42, vs control
[2] = therapeutic groups, oral days 42-70, vs control
[3] = prophylactic groups, oral days 1-42
[4] = therapeutic groups, oral days 42-70

## OC[C@H]1O[C@@H](Oc2cc3c(O)cc(O)cc3[o+]c2-c2ccc(O)c(O)c2)[C@H](O)[C@@H](O)[C@@H]1O [C3G, cyanidin-3-glucoside, reference compound]
lubricin; [1]
  lubricin in synovium: increased
lubricin; [2]
  lubricin in synovium: increased
TNF-alpha
  TNF-alpha levels in synovial fluid: slight increase
MMP-13; prophylactic groups, oral 7 times per week days 1-42 (C3G 30 mg/kg, PCA 26.4 mg/kg)
  MMP-13 levels in synovium: increased slightly
MMP-13; therapeutic groups, oral 7 times per week days 42-70 (C3G 30 mg/kg, PCA 26.4 mg/kg)
  MMP-13 levels in synovium: slightly decreased
MMP-1
  MMP-1 in synovium: decrease
IGF-1; [3]
  IGF-1 in the plasma: 15.8 pg/mL
IGF-1; [4]
  IGF-1 in the plasma: 28.5 pg/mL
IL-1 beta
  levels of IL-1 beta in synovium: decreased
MMP3
  MMP3 in synovial fluid: decreased
C-reactive protein (CRP); given by oral route immediately after injury
  CRP, an indicator of inflammation: kept to normal levels
C-reactive protein (CRP); prophylaxis test group, 6 weeks oral treatment from surgery, untreated control at 42 days 8.8 mg/mL
  plasma CRP level: 3.1 micrograms/mL
C-reactive protein (CRP); therapeutic group, no treatment for 6 weeks after surgery, then 4 weeks oral treatment
  plasma CRP level: 28.3 mg/mL
ADAMTS-5 gene expression
  ADAMTS-5 gene expression in synovium: decreased
MMP-3; [3]
  histochemical staining for the presence of MMP-3 in cartilage: very minimal positive stain
MMP-3; [1]
  MMP-3 expression in cartilage: reduced
MMP-3; [4]
  histochemical staining for the presence of MMP-3 in cartilage: no staining
MMP-3; [2]
  MMP-3 expression in cartilage: reduced
TIMP-1; [1]
  TIMP-1 levels in synovial fluid: elevated
TIMP-1; [2]
  TIMP-1 levels in synovial fluid: elevated
TGF-beta
  TGF-beta in synovium: increased
lymphocytes
  number of lymphocytes in synovial fluid: decreased
ADAMTS-5; [1]
  ADAMTS-5 in synovial fluid: decreased
ADAMTS-5; [2]
  ADAMTS-5 in synovial fluid: decreased
